This note sets out measurements from patent US6713475B2, “Tricyclic benzodiazepines as vasopressin receptor antagonists” (Ortho-McNeil Pharmaceutical, Inc., priority 1999, dated 2004).

The target in one test is T1, human V-1 receptor (Homo sapiens, UniProt P37288).
T1 construct: expressed in transfected cells; host or cells: HEK-293
In words: In vitro recombinant vasopressin receptor binding assay (V1 Bdg), displacement of 3H-arginine vasopressin. As to conditions: for inhibition at 0.1 µM: read-out: V1 Bdg (% inh, 0.1 uM); for inhibition at 10 µM: read-out: V1 Bdg % inh. How it is done: (§1) In vitro Recombinant Vasopressin Receptor Binding Assay
(§2) Compounds were assessed for their ability to displace ^3H-arginine vasopressin from the human V-1 or V-2 receptor in HEK-293 cells. Assay buffer is 50 mM Tris-Cl, 5 mM MgCl2, 0.1% BSA (pH 7.5) containing 5 ug/ml of aprotinin, leupeptin, pepstatin, 50 ug/ml bacitracin, and 1 mM Pefabloc. ^3H-vasopressin is ^3H-arginine-8-vasopressin (68.5 Ci/mmol, final concentration in assay is 0.65-0.75 nM). Into wells of 96-well round bottom polypropylene plates were added buffer, test compound, membrane (containing cloned human V-1 or V-2 receptor), and ^3H-vasopressin. The reaction plates were allowed to sit at room temperature for one hour. The samples were filtered through Unifilter GF/C plates (presoaked in 0.3 polyethyleneimine). The plates were washed 5 times with cold physiological saline containing 0.05% Tween 20. After drying, the bottom of the filter plates were sealed and 0.025 ml of Microscint-20 was added to each filter. The top of the plate was sealed, and the plate was counted. Non-specific binding was determined by the addition of 1.25 uM arginine-8-vasopressin in those wells.

For the next test, the target named is V2 (Homo sapiens, UniProt P30518). Briefly: In vitro recombinant vasopressin receptor binding assay (V2 Bdg), displacement of 3H-arginine vasopressin. Further details: expressed in transfected cells; host or cells: HEK-293. To be noted: for IC50: membrane with cloned human V-2 receptor (HEK-293); for V2 Bdg % inh: 0.1 uM, printed in parentheses in place of IC50. The method, then: as §1
Sequence of V2 (P30518 whole entry): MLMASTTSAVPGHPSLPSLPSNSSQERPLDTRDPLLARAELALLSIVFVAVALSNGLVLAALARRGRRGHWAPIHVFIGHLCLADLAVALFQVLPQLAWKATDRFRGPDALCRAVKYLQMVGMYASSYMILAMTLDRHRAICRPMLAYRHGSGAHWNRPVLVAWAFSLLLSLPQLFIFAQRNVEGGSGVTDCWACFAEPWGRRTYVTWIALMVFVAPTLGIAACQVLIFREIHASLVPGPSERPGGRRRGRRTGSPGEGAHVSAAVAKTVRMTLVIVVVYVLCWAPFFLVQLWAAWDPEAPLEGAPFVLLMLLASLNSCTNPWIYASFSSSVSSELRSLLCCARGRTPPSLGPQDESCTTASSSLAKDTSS
as §2, with “Assay buffer is 50 mM Tris-Cl, 5 mM MgCl2, 0.1% BSA (pH 7.5) containing 5 ug/ml of aprotinin, leupeptin, pepstatin, 50 ug/ml bacitracin, and 1 mM Pefabloc. ^3H-vasopressin is ^3H-arginine-8-vasopressin (68.5 Ci/mmol, final concentration in assay is 0.65-0.75 nM).” left out, “counted.” for “counted. Non-specific binding was determined by the addition of 1.25 uM arginine-8-vasopressin in those wells.”

T1 sequence (P37288 whole entry): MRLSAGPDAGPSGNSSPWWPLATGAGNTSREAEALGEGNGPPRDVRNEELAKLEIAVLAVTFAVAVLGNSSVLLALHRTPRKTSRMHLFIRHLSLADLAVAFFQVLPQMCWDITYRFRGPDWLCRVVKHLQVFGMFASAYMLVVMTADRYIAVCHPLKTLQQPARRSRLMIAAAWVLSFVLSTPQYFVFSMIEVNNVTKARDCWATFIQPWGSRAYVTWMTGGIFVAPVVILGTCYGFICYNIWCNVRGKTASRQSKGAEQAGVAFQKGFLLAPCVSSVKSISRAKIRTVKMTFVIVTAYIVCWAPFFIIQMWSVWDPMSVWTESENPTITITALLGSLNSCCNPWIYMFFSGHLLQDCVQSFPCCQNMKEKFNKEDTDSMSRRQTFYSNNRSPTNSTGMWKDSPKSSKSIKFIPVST

`O=C(Nc1ccc(C(=O)N2CC3COCCN3Cc3ccccc32)c(Cl)c1)c1cc(F)c(F)c(F)c1F` (racemic) [Compound 16, (RS)-2,3,4,5-Tetrafluoro-N-[3-chloro-4-(1,3,4,12a-tetrahydro-6H-[1,4]oxazino[4,3-a][1,4]-benzodiazepin-11(12H)-yl-carbonyl)phenyl]benzamide]: the inhibition at 0.1 µM at human V-1 receptor came out at 20%. Also, the IC50 at V2 came to 25 nM.
Taken in the same sequence, the figures for `O=C(Nc1ccc(C(=O)N2CC3COCCN3Cc3ccccc32)c(Cl)c1)c1cccc(Cl)c1F` (racemic) [Compound 18, (RS)-2-Fluoro-3-chloro-N-[3-chloro-4-(1,3,4,12a-tetrahydro-6H-[1,4]oxazino[4,3-a][1,4]-benzodiazepin-11(12H)-yl-carbonyl)phenyl]benzamide] were 15% and 18 nM.
On the same counts, the results for `O=C(Nc1ccc(C(=O)N2CC3COCCN3Cc3ccccc32)c(Cl)c1)c1ccccc1SC(F)F` (racemic) [Compound 19, (RS)-2-(Difluoromethylthio)-N-[3-chloro-4-(1,3,4,12a-tetrahydro-6H-[1,4]oxazino[4,3-a][1,4]-benzodiazepin-11(12H)-yl-carbonyl)phenyl]benzamide] are 24% and 27 nM.
On the same counts, the results for `O=C(Nc1ccc(C(=O)N2CC3COCCN3Cc3ccccc32)cc1)c1ccccc1-c1ccccc1` (racemic) [Compound 20, (RS)-2-Phenyl-N-[4-(1,3,4,12a-tetrahydro-6H-[1,4]oxazino[4,3-a][1,4]-benzodiazepin-11(12H)-yl-carbonyl)phenyl]benzamide] are 69% and 8 nM.
As for `O=C(Nc1ccc(C(=O)N2CC3COCCN3C(=O)c3ccccc32)c(Cl)c1)c1ccccc1-c1ccccc1` (racemic) [Compound 21, (RS)-2-Phenyl-N-[3-chloro-4-(1,3,4,12a-tetrahydro-6H-[1,4]oxazino[4,3-a][1,4]-5-oxo-benzodiazepin-11(12H)-yl-carbonyl)phenyl]benzamide], the “V1 Bdg (% inh, 0.1 uM)” value on human V-1 receptor is 2%. Moreover, on V2, the “V2 Bdg % inh” value was “(59%/0.1 uM)”.
In the case of `O=C(Nc1ccc(C(=O)N2CC3COCCN3Cc3ccccc32)cc1O)c1ccccc1-c1ccccc1` (racemic) [Compound 22, (RS)-2-Phenyl-N-[2-hydroxy-4-(1,3,4,12a-tetrahydro-6H-[1,4]oxazino[4,3-a][1,4]-benzodiazepin-11(12H)-yl-carbonyl)phenyl]benzamide], the inhibition at 0.1 µM on human V-1 receptor was determined as 67%. The IC50 on V2 is 6 nM.
As for `O=C(Nc1ccc(C(=O)N2CC3COCCN3Cc3ccccc32)c(O)c1)c1ccccc1-c1ccccc1` (racemic) [Compound 23, (RS)-2-Phenyl-N-[3-hydroxy-4-(1,3,4,12a-tetrahydro-6H-[1,4]oxazino[4,3-a][1,4]-benzodiazepin-11(12H)-yl-carbonyl)phenyl]benzamide], at human V-1 receptor, the inhibition at 0.1 µM was determined as 33%. In addition, the IC50 on V2 is 10 nM.
Taken in the same sequence, the figures for `Cc1ccccc1C(=O)Nc1ccc(C(=O)N2CC3COCCN3Cc3ccccc32)c(Cl)c1` (racemic) [Compound 24, (RS)-2-Methyl-N-[3-chloro-4-(1,3,4,12a-tetrahydro-6H-[1,4]oxazino[4,3-a][1,4]-benzodiazepin-11(12H)-yl-carbonyl)phenyl]benzamide] were 34% and 16 nM.
Taken in the same sequence, the figures for `Cc1ccc(-c2ccccc2C(=O)Nc2ccc(C(=O)N3CC4COCCN4Cc4ccccc43)c(Cl)c2)cc1` (racemic) [Compound 25, (RS)-2-(4-Methyl-phenyl)-N-[3-chloro-4-(1,3,4,12a-tetrahydro-6H-[1,4]oxazino[4,3-a][1,4]-benzodiazepin-11(12H)-yl-carbonyl)phenyl]benzamide] were 60% and 12 nM.
Turning to `Cc1ccccc1C(=O)Nc1ccc(C(=O)N2CC3COCCN3Cc3ccccc32)cc1` (racemic) [Compound 26, (RS)-2-Methyl-N-[4-(1,3,4,12a-tetrahydro-6H-[1,4]oxazino[4,3-a][1,4]-benzodiazepin-11(12H)-yl-carbonyl)phenyl]benzamide], on human V-1 receptor, the “V1 Bdg (% inh, 0.1 uM)” value came out at 58%. On V2, the “V2 Bdg % inh” value is reported as “(65%/0.1 uM)”.
Turning to `Cc1ccccc1C(=O)Nc1ccc(C(=O)N2CC3COCCN3Cc3ccccc32)c(C)c1` (racemic) [Compound 27, (RS)-2-M ethyl-N-[3-methyl-4-(1,3,4,12a-tetrahydro-6H-[1,4]oxazino[4,3-a][1,4]-benzodiazepin-11(12H)-yl-carbonyl)phenyl]benzamide], at human V-1 receptor, the inhibition at 0.1 µM turned out to be 7%. Further, the IC50 at V2 was determined as 13 nM.
For the compound `Cc1ccc(-c2ccccc2C(=O)Nc2ccc(C(=O)N3CC4COCCN4Cc4ccccc43)c(C)c2)cc1` (racemic) [Compound 28, (RS)-2-(4-Methyl-phenyl)-N-[3-methyl-4-(1,3,4,12a-tetrahydro-6H-[1,4]oxazino[4,3-a][1,4]-benzodiazepin-11(12H)-yl-carbonyl)phenyl]benzamide], the inhibition at 0.1 µM at human V-1 receptor is 14%. Further, the IC50 at V2 was determined as 10 nM.
Taken in the same sequence, the figures for `Cc1cc(NC(=O)c2ccccc2-c2ccccc2)ccc1C(=O)N1CC2COCCN2Cc2ccccc21` (racemic) [Compound 29, (RS)-2-Phenyl-N-[3-methyl-4-(1,3,4,12a-tetrahydro-6H-[1,4]oxazino[4,3-a][1,4]-benzodiazepin-11(12H)-yl-carbonyl)phenyl]benzamide] were 3% and 6 nM.
Taken in the same sequence, the figures for `Cc1ccc(-c2ccccc2C(=O)Nc2ccc(C(=O)N3CC4COCCN4Cc4ccccc43)c(F)c2)cc1` (racemic) [Compound 30, (RS)-2-(4-Methyl-phenyl)-N-[3-fluoro-4-(1,3,4,12a-tetrahydro-6H-[1,4]oxazino[4,3-a][1,4]-benzodiazepin-11(12H)-yl-carbonyl)phenyl]benzamide] were 74% and 14 nM.
As for `COc1ccc2c(c1)CN1CCSCC1CN2C(=O)c1ccc(NC(=O)c2ccccc2-c2ccccc2)cc1` (racemic) [Compound 31, (RS)-2-Phenyl-N-[4-(8-methoxy-1,3,4,12a-tetrahydro-6H-[1,4]thiazino[4,3-a][1,4]-benzodiazepin-11(12H)-yl-carbonyl)phenyl]benzamide], the inhibition at 10 µM on human V-1 receptor is 27%. Also, the 50% inhibitory concentration (IC50) on V2 was 43 nM.
On the same counts, the results for `O=C(Nc1ccc(C(=O)N2CC3CSCCN3Cc3cc(F)ccc32)cc1)c1ccccc1-c1ccccc1` (racemic) [Compound 32, (RS)-2-Phenyl-N-[4-(8-fluoro-1,3,4,12a-tetrahydro-6H-[1,4]thiazino[4,3-a][1,4]-benzodiazepin-11(12H)-yl-carbonyl)phenyl]benzamide] are 44% and 20 nM.
On the same counts, the results for `O=C(Nc1ccc(C(=O)N2CC3CSCCN3Cc3cc(F)c(F)cc32)cc1)c1ccccc1-c1ccccc1` (racemic) [Compound 35, (RS)-2-Phenyl-N-[4-(8,9-difluoro-1,3,4,12a-tetrahydro-6H-[1,4]thiazino[4,3-a][1,4]-benzodiazepin-11(12H)-yl-carbonyl)phenyl]benzamide] are 15% and 38 nM.
For the compound `Cc1ccc2c(c1)CN1CCSCC1CN2C(=O)c1ccc(NC(=O)c2ccccc2-c2ccccc2)cc1` (racemic) [Compound 36, (RS)-2-Phenyl-N-[4-(8-methyl-1,3,4,12a-tetrahydro-6H-[1,4]thiazino[4,3-a][1,4]-benzodiazepin-11(12H)-yl-carbonyl)phenyl]benzamide], the inhibition at 0.1 µM at human V-1 receptor was found to be 76%. Further, the IC50 on V2 was 18 nM.
Taken in the same sequence, the figures for `O=C(Nc1ccc(C(=O)N2CC3CSCCN3Cc3cc(Cl)ccc32)cc1)c1ccccc1-c1ccccc1` (racemic) [Compound 37, (RS)-2-Phenyl-N-[4-(8-chloro-1,3,4,12a-tetrahydro-6H-[1,4]thiazino[4,3-a][1,4]-benzodiazepin-11(12H)-yl-carbonyl)phenyl]benzamide] were 75% and 22 nM.
Taken in the same sequence, the figures for `O=C(Nc1ccc(C(=O)N2CC3CSCCN3Cc3cc(F)ccc32)c(Cl)c1)c1ccccc1-c1ccccc1` (racemic) [Compound 38, (RS)-2-Phenyl-N-[3-chloro-4-(8-fluoro-1,3,4,12a-tetrahydro-6H-[1,4]thiazino[4,3-a][1,4]-benzodiazepin-11 (12H)-yl-carbonyl)phenyl]benzamide] were 9% and 18 nM.
For the compound `Cc1cccc(C(=O)Nc2ccc(C(=O)N3CC4CSCCN4Cc4ccccc43)c(Cl)c2)c1I` (racemic) [Compound 42, (RS)-2-Iodo-3-methyl-N-[3-chloro-4-(1,3,4,12a-tetrahydro-6H-[1,4]thiazino[4,3-a][1,4]-benzodiazepin-11(12H)-yl-carbonyl)phenyl]benzamide], the “V1 Bdg (% inh, 0.1 uM)” value on human V-1 receptor is recorded as 0%. Further, the “V2 Bdg % inh” value at V2 is on record as “(62%/0.1 uM)”.
